A short description of the data set: Solubility in phosphate buffer pH 7.4. The method in brief: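 Solubility at pH 7.4 determined by stepwise addition of 200 mM phosphate buffer in 100 μL increments to 3 mg peptide, mixing briefly each time, until no insoluble material remained, then measured by liquid chromatography.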
Setting [1] is: pH 7.4, aqueous buffer, pH 7.4 Phosphate Buffer - Solubility, 200 mM Phosphate buffer pH 7.4.
The mark [2] stands for this setting: pH 7.4, solubility in phosphate buffer at pH 7.4, 200 mM phosphate buffer pH 7.4.

Starred links: 1 amine or outer side, 2 acyl side, 3 side chain; linkers in the order of their positions; H or OH if unused. Non-standard residues stand in square brackets, D forms with d. Residues, ends and D or L forms follow the SMILES beside them. Groups on a side chain read outwards from the residue. *: point of attachment. C18 diacid = O=C(O)CCCCCCCCCCCCCCCCC(=O)*; C17 diacid = O=C(O)CCCCCCCCCCCCCCCC(=O)*; γGlu = O=C(O)[C@H](CCC(=O)[*:2])N[*:1]; NMeY = CN[C@@H](Cc1ccc(O)cc1)C(=O)O; AEEA = NCCOCCOCC(=O)O; Aib = CC(C)(N)C(=O)O

Consider `CC[C@H](C)[C@H](NC(=O)[C@H](CCCCN)NC(=O)[C@H](CC(=O)O)NC(=O)[C@H](CC(C)C)NC(=O)[C@H](C)NC(=O)[C@@H](NC(=O)[C@H](CO)NC(=O)[C@H](Cc1ccc(O)cc1)NC(=O)[C@H](CC(=O)O)NC(=O)[C@H](CO)NC(=O)[C@@H](NC(=O)[C@H](Cc1ccccc1)NC(=O)[C@@H](NC(=O)CNC(=O)[C@H](CCC(=O)O)NC(=O)C(C)(C)NC(=O)[C@@H](N)Cc1ccc(O)cc1)[C@@H](C)O)[C@@H](C)CC)[C@@H](C)CC)C(=O)N[C@@H](C)C(=O)N[C@@H](CCC(N)=O)C(=O)N[C@@H](CCCNC(=N)N)C(=O)N[C@@H](CCCCNC(=O)COCCOCCNC(=O)COCCOCCNC(=O)CC[C@H](NC(=O)CC[C@H](NC(=O)CCCCCCCCCCCCCCCC(=O)O)C(=O)O)C(=O)O)C(=O)N[C@@H](Cc1ccccc1)C(=O)N[C@H](C(=O)N[C@@H](CCC(=O)O)C(=O)N[C@@H](Cc1c[nH]c2ccccc12)C(=O)N[C@@H](CC(C)C)C(=O)N[C@@H](CC(C)C)C(=O)N[C@@H](C)C(=O)N[C@@H](CCC(N)=O)C(=O)N[C@@H](CCCNC(=N)N)C(=O)N1CCC[C@H]1C(=O)N[C@@H](CO)C(=O)N[C@@H](CO)C(=O)NCC(=O)N[C@@H](C)C(=O)N1CCC[C@H]1C(=O)N1CCC[C@H]1C(=O)N1CCC[C@H]1C(=O)N[C@@H](CO)C(=O)O)C(C)C` [Compound 135] (H-Y[Aib]EGTFISDYSIALDKIAQRK([AEEA-AEEA-γGlu-γGlu-C17 diacid])FVEWLLAQRPSSGAPPPS-OH), for which the solubility – broadly, the concentration that dissolves in the medium under given conditions – was at least 30 mg/mL under setting [1] and at least 15 mg/mL under setting [2].

Turning to `CC[C@H](C)[C@H](NC(=O)[C@H](CCCNC(=N)N)NC(=O)[C@H](CC(=O)O)NC(=O)[C@H](CC(C)C)NC(=O)[C@H](C)NC(=O)[C@@H](NC(=O)[C@H](CO)NC(=O)[C@H](Cc1ccc(O)cc1)NC(=O)[C@H](CC(=O)O)NC(=O)[C@H](CO)NC(=O)[C@@H](NC(=O)[C@H](Cc1ccccc1)NC(=O)[C@@H](NC(=O)CNC(=O)[C@H](CCC(=O)O)NC(=O)C(C)(C)NC(=O)[C@H](Cc1ccc(O)cc1)NC)[C@@H](C)O)[C@@H](C)CC)[C@@H](C)CC)C(=O)N[C@@H](C)C(=O)N[C@@H](CCC(N)=O)C(=O)N[C@@H](CCC(N)=O)C(=O)N[C@@H](CCCCNC(=O)COCCOCCNC(=O)COCCOCCNC(=O)CC[C@H](NC(=O)CC[C@H](NC(=O)CCCCCCCCCCCCCCCCC(=O)O)C(=O)O)C(=O)O)C(=O)N[C@@H](Cc1ccccc1)C(=O)N[C@H](C(=O)N[C@@H](CC(N)=O)C(=O)N[C@@H](Cc1c[nH]c2ccccc12)C(=O)N[C@@H](CC(C)C)C(=O)N[C@@H](CC(C)C)C(=O)N[C@@H](C)C(=O)N[C@@H](CCC(N)=O)C(=O)N[C@@H](CO)C(=O)N1CCC[C@H]1C(=O)N[C@@H](CO)C(=O)N[C@@H](CO)C(=O)NCC(=O)N[C@@H](C)C(=O)N1CCC[C@H]1C(=O)N1CCC[C@H]1C(=O)N1CCC[C@H]1C(=O)N[C@@H](CO)C(=O)O)C(C)C` [Compound 177] (H-[NMeY][Aib]EGTFISDYSIALDRIAQQK([AEEA-AEEA-γGlu-γGlu-C18 diacid])FVNWLLAQSPSSGAPPPS-OH), the solubility by setting is: under setting [1], at least 30 mg/mL; under setting [2], at least 15 mg/mL.

As for `CC[C@H](C)[C@H](NC(=O)[C@H](CO)NC(=O)[C@H](Cc1ccc(O)cc1)NC(=O)[C@H](CC(=O)O)NC(=O)[C@H](CO)NC(=O)[C@@H](NC(=O)[C@H](Cc1ccccc1)NC(=O)[C@@H](NC(=O)CNC(=O)[C@H](CCC(=O)O)NC(=O)C(C)(C)NC(=O)[C@H](Cc1ccc(O)cc1)NC)[C@@H](C)O)[C@@H](C)CC)C(=O)N[C@@H](C)C(=O)N[C@@H](CC(C)C)C(=O)N[C@@H](CC(=O)O)C(=O)N[C@@H](CCCNC(=N)N)C(=O)NC(C)(C)C(=O)N[C@@H](Cc1c[nH]cn1)C(=O)N[C@@H](CCC(N)=O)C(=O)NC(C)(C)C(=O)N[C@@H](CCCCNC(=O)COCCOCCNC(=O)COCCOCCNC(=O)CC[C@H](NC(=O)CC[C@H](NC(=O)CCCCCCCCCCCCCCCCC(=O)O)C(=O)O)C(=O)O)C(=O)N[C@@H](Cc1ccccc1)C(=O)N[C@H](C(=O)N[C@@H](CC(N)=O)C(=O)N[C@@H](Cc1c[nH]c2ccccc12)C(=O)N[C@@H](CC(C)C)C(=O)N[C@@H](CC(C)C)C(=O)N[C@@H](C)C(=O)N[C@@H](CCC(N)=O)C(=O)N[C@@H](CCCNC(=N)N)C(N)=O)C(C)C` [Compound 18] (H-[NMeY][Aib]EGTFISDYSIALDR[Aib]HQ[Aib]K([AEEA-AEEA-γGlu-γGlu-C18 diacid])FVNWLLAQR-NH2), the solubility reads like this: (pH 7.4) at least 15 mg/mL; (pH 7.4, aqueous buffer) at least 30 mg/mL.

With `CC[C@H](C)[C@H](NC(=O)[C@H](CO)NC(=O)[C@H](Cc1ccc(O)cc1)NC(=O)[C@H](CC(=O)O)NC(=O)[C@H](CO)NC(=O)[C@@H](NC(=O)[C@H](Cc1ccccc1)NC(=O)[C@@H](NC(=O)CNC(=O)[C@H](CCC(=O)O)NC(=O)C(C)(C)NC(=O)[C@H](Cc1ccc(O)cc1)NC)[C@@H](C)O)[C@@H](C)CC)C(=O)N[C@@H](C)C(=O)N[C@@H](CCCCNC(=O)CNC(=O)CNC(=O)CNC(=O)CNC(=O)CNC(=O)CC[C@H](NC(=O)CCCCCCCCCCCCCCCC(=O)O)C(=O)O)C(=O)N[C@@H](CC(=O)O)C(=O)N[C@@H](CCCNC(=N)N)C(=O)NC(C)(C)C(=O)N[C@@H](C)C(=O)N[C@@H](CCC(N)=O)C(=O)NC(C)(C)C(=O)N[C@@H](CC(=O)O)C(=O)N[C@@H](Cc1ccccc1)C(=O)N[C@H](C(=O)N[C@@H](CC(N)=O)C(=O)N[C@@H](Cc1c[nH]c2ccccc12)C(=O)N[C@@H](CC(C)C)C(=O)N[C@@H](CC(C)C)C(=O)N[C@@H](C)C(=O)N[C@@H](CCC(N)=O)C(=O)N[C@@H](CCCNC(=N)N)C(=O)N1CCC[C@H]1C(=O)N[C@@H](CO)C(=O)N[C@@H](CO)C(=O)NCC(=O)N[C@@H](C)C(=O)N1CCC[C@H]1C(=O)N1CCC[C@H]1C(=O)N1CCC[C@H]1C(=O)N[C@@H](CO)C(N)=O)C(C)C` [Compound 22], the solubility runs as follows: under setting [1], at least 30 mg/mL; under setting [2], at least 15 mg/mL.

As to `CC[C@H](C)[C@H](NC(=O)[C@H](CO)NC(=O)[C@H](Cc1ccc(O)cc1)NC(=O)[C@H](CC(=O)O)NC(=O)[C@H](CO)NC(=O)[C@@H](NC(=O)[C@H](Cc1ccccc1)NC(=O)[C@@H](NC(=O)CNC(=O)[C@H](CCC(=O)O)NC(=O)C(C)(C)NC(=O)[C@@H](N)Cc1ccc(O)cc1)[C@@H](C)O)[C@@H](C)CC)C(=O)N[C@@H](C)C(=O)N[C@@H](CC(C)C)C(=O)N[C@@H](CC(=O)O)C(=O)N[C@@H](CCCCN)C(=O)N[C@H](C(=O)N[C@@H](CCCCNC(=O)COCCOCCNC(=O)COCCOCCNC(=O)CC[C@H](NC(=O)CCCCCCCCCCCCCCCCC(=O)O)C(=O)O)C(=O)N[C@@H](CCC(N)=O)C(=O)NC(C)(C)C(=O)N[C@@H](CC(=O)O)C(=O)N[C@@H](Cc1ccccc1)C(=O)N[C@H](C(=O)N[C@@H](CCC(=O)O)C(=O)N[C@@H](Cc1c[nH]c2ccccc12)C(=O)N[C@@H](CC(C)C)C(=O)N[C@@H](CC(C)C)C(=O)N[C@@H](C)C(=O)N[C@@H](CCC(N)=O)C(=O)N[C@@H](CCCNC(=N)N)C(=O)NCC(=O)O)C(C)C)[C@@H](C)CC` [Compound 160] (H-Y[Aib]EGTFISDYSIALDKIK([AEEA-AEEA-γGlu-C18 diacid])Q[Aib]DFVEWLLAQRG-OH), the solubility is at least 15 mg/mL (pH 7.4) and at least 30 mg/mL (pH 7.4, aqueous buffer).

For the origin of these results see US20230143604A1, “QW DOSING OF GIP RECEPTOR AGONIST PEPTIDE COMPOUNDS AND USES THEREOF” (TAKEDA PHARMACEUTICAL COMPANY LIMITED, priority 2020, published 2023).
